ChEMBL document CHEMBL1151318, “New secosteroids from a gorgonian of the genus Muricella” (1998)
In brackets after ≈: the same amount, converted by molar mass.

Tests used:
K562 = assay: Cytotoxicity against human K562 cells; type: functional; settings: read-out: LC50 (the source's name)
[1] = target: Phospholipase A2 (Homo sapiens) (UniProt P04054); assay: Inhibition of PLA2 at 50 ug/mL
Chain of Phospholipase A2 (Homo sapiens) (P04054 23-148 limits assumed): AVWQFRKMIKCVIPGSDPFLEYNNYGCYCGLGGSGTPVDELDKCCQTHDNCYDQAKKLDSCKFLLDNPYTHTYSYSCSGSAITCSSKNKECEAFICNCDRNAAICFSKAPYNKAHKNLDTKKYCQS

| Structure (SMILES) | CC50 (K562) [µg/mL] | inhibition [1] [%] |
| --- | --- | --- |
| Cc1ccc(O)cc1CC[C@@H]1[C@H](O)CC[C@]2(C)[C@@H]([C@H](C)/C=C/C(C)C(C)C)CC[C@@H]12 (stereo partly drawn) [CALICOFEROL F] | 3.2 (≈ 7.75 µM) | – |
| Cc1ccc(O)cc1CC[C@@H]1[C@H](O)CC[C@]2(C)[C@@H]([C@H](C)/C=C/C(C)C)CC[C@@H]12 [CALICOFEROL H] | 10.7 (≈ 27.8 µM) | 67 |
| Cc1ccc(O)cc1CC[C@@H]1C(=O)CC[C@]2(C)[C@@H]([C@H](C)CCCC(C)C)[C@@H](O)C[C@@H]12 [CALICOFEROL I] | 9.6 (≈ 23.2 µM) | – |
| CC(C)=CCC[C@@H](C)[C@H]1CC[C@H]2[C@H](CCc3cc(O)ccc3C)[C@H](O)CC[C@]12C [CALICOFEROL G] | 2.1 (≈ 5.27 µM) | 55 |
| Cc1ccc(O)cc1CC[C@@H]1[C@H](O)CC[C@]2(C)[C@@H]([C@H](C)CCCC(C)C)CC[C@@H]12 [ASTROGORGIADIOL] | 12.1 (≈ 30.2 µM) | 47 |
